Measured values from PubChem BioAssay (NCI).
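The concentration for 50% growth inhibition is given as GI50. TGI marks complete inhibition of growth.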

Tests used:
Experiment in all cases: NCI-60 cell line screen, 384-well format
[1] = test system: TK-10 renal
[2] = test system: MCF7 breast
[3] = test system: MALME-3M melanoma
[4] = test system: OVCAR-3 ovarian
[5] = test system: CAKI-1 renal
[6] = test system: BT-549 breast
[7] = test system: NCI/ADR-RES ovarian
[8] = test system: HS 578T breast
[9] = test system: NCI-H460 NSCLC
[10] = test system: PC-3 prostate
[11] = test system: MDA-MB-435 melanoma
[12] = test system: NCI-H322M lung
[13] = test system: SK-MEL-2 melanoma
[14] = test system: SF-295 CNS
[15] = test system: ACHN renal
[16] = test system: SF-268 CNS
[17] = test system: NCI-H522 lung
[18] = test system: HT29 colon
[19] = test system: A498 renal
[20] = test system: OVCAR-4 ovarian
[21] = test system: T-47D breast
[22] = test system: HCT-15 colon
[23] = test system: M14 melanoma
[24] = test system: SK-MEL-28 melanoma
[25] = test system: NCI-H226 lung
[26] = test system: RXF 393 renal
[27] = test system: HCC-2998 colon
[28] = test system: COLO 205 colon
[29] = test system: NCI-H23 lung
[30] = test system: MDA-MB-231 breast
[31] = test system: MDA-MB-468 breast
[32] = test system: 786-0 renal
[33] = test system: UACC-257 melanoma
[34] = test system: SK-OV-3 ovarian
[35] = test system: SNB-75 CNS
[36] = test system: A549 NSCLC
[37] = test system: SN12C renal
[38] = test system: HOP-92 NSCLC
[39] = test system: EKVX NSCLC
[40] = test system: KM12 colon
[41] = test system: UACC-62 melanoma
[42] = test system: RPMI-8226 leukemia
[43] = test system: OVCAR-5 ovarian
[44] = test system: HL-60(TB) leukemia
[45] = test system: SF-539 CNS
[46] = test system: OVCAR-8 ovarian
[47] = test system: SK-MEL-5 melanoma
[48] = test system: SW-620 colon
[49] = test system: SNB-19 CNS
[50] = test system: U251 glioblastoma
[51] = test system: MOLT-4 leukemia
[52] = test system: CCRF-CEM leukemia
[53] = test system: SR leukemia
[54] = test system: IGROV1 ovarian
[55] = test system: HOP-62 NSCLC
[56] = test system: DU-145 prostate

SMILES: O=c1[nH]c(C2CCCN2)nc2c1oc1ccc(Cl)cc12 (configuration not stated)
- GI50 [1]: > 100 µM
- TGI [1]: > 100 µM
- GI50 [2]: > 100 µM
- TGI [2]: > 100 µM
- GI50 [3]: 14.8 µM
- TGI [3]: > 100 µM
- GI50 [4]: > 100 µM
- TGI [4]: > 100 µM
- GI50 [5]: 57 µM
- TGI [5]: > 100 µM
- GI50 [6]: 29.3 µM
- TGI [6]: 78.4 µM
- GI50 [7]: > 100 µM
- TGI [7]: > 100 µM
- GI50 [8]: > 100 µM
- TGI [8]: > 100 µM
- GI50 [9]: > 100 µM
- TGI [9]: > 100 µM
- GI50 [10]: > 100 µM
- TGI [10]: > 100 µM
- GI50 [11]: > 100 µM
- TGI [11]: > 100 µM
- GI50 [12]: > 100 µM
- TGI [12]: > 100 µM
- GI50 [13]: > 100 µM
- TGI [13]: > 100 µM
- GI50 [14]: > 100 µM
- TGI [14]: > 100 µM
- GI50 [15]: > 100 µM
- TGI [15]: > 100 µM
- GI50 [16]: > 100 µM
- TGI [16]: > 100 µM
- GI50 [17]: 14.4 µM
- TGI [17]: 31 µM
- GI50 [18]: > 100 µM
- TGI [18]: > 100 µM
- GI50 [19]: 58.5 µM
- TGI [19]: > 100 µM
- GI50 [20]: 81.8 µM
- TGI [20]: > 100 µM
- GI50 [21]: 19 µM
- TGI [21]: 35 µM
- GI50 [22]: > 100 µM
- TGI [22]: > 100 µM
- GI50 [23]: 62.8 µM
- TGI [23]: > 100 µM
- GI50 [24]: > 100 µM
- TGI [24]: > 100 µM
- GI50 [25]: 49.5 µM
- TGI [25]: > 100 µM
- GI50 [26]: 21 µM
- TGI [26]: 43.1 µM
- GI50 [27]: > 100 µM
- TGI [27]: > 100 µM
- GI50 [28]: 31.2 µM
- TGI [28]: 83 µM
- GI50 [29]: > 100 µM
- TGI [29]: > 100 µM
- GI50 [30]: 99.5 µM
- TGI [30]: > 100 µM
- GI50 [31]: 21.2 µM
- TGI [31]: 56.7 µM
- GI50 [32]: > 100 µM
- TGI [32]: > 100 µM
- GI50 [33]: > 100 µM
- TGI [33]: > 100 µM
- GI50 [34]: > 100 µM
- TGI [34]: > 100 µM
- GI50 [35]: 38.1 µM
- TGI [35]: > 100 µM
- GI50 [36]: > 100 µM
- TGI [36]: > 100 µM
- GI50 [37]: > 100 µM
- TGI [37]: > 100 µM
- GI50 [38]: 65.3 µM
- TGI [38]: > 100 µM
- GI50 [39]: 85 µM
- TGI [39]: > 100 µM
- GI50 [40]: > 100 µM
- TGI [40]: > 100 µM
- GI50 [41]: > 100 µM
- TGI [41]: > 100 µM
- GI50 [42]: > 100 µM
- TGI [42]: > 100 µM
- GI50 [43]: > 100 µM
- TGI [43]: > 100 µM
- GI50 [44]: 29.8 µM
- TGI [44]: > 100 µM
- GI50 [45]: 53.6 µM
- TGI [45]: > 100 µM
- GI50 [46]: > 100 µM
- TGI [46]: > 100 µM
- GI50 [47]: 36.2 µM
- TGI [47]: > 100 µM
- GI50 [48]: > 100 µM
- TGI [48]: > 100 µM
- GI50 [49]: > 100 µM
- TGI [49]: > 100 µM
- GI50 [50]: > 100 µM
- TGI [50]: > 100 µM
- GI50 [51]: 31 µM
- TGI [51]: > 100 µM
- GI50 [52]: 18.2 µM
- TGI [52]: 37.8 µM
- GI50 [53]: 37.3 µM
- TGI [53]: > 100 µM
- GI50 [54]: > 100 µM
- TGI [54]: > 100 µM
- GI50 [55]: > 100 µM
- TGI [55]: > 100 µM
- GI50 [56]: > 100 µM
- TGI [56]: > 100 µM
